Assay results reported in BindingDB's records for doi:10.1111/cbdd.12342 (Zhejiang University, 2014).

Target: T1, Proteasome subunit beta type-5 (Homo sapiens, UniProt P28074)
T1 sequence (P28074 whole entry): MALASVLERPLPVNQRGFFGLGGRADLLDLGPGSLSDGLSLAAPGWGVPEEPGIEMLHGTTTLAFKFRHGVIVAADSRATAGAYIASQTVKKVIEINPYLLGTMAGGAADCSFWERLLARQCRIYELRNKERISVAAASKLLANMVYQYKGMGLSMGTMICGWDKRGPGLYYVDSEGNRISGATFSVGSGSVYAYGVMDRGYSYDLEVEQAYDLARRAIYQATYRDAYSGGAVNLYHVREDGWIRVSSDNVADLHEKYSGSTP
Assay: 20S proteasome chymotrypsin-like inhibition assay

`CC(C)C[C@H](NC(=O)CC(NC(=O)c1ccc(F)cc1)c1ccccc1)C(=O)N[C@@H](CC(C)C)C(=O)[C@@]1(C)CO1` (some centres undefined) [4-Fluoro-N-{3-{S-4-methyl-1-[S-4-methyl-1-(R-2-methyloxiran-2-yl)-1-oxopentan-2-ylamino]-1-oxopentan-2-ylamino}-3-oxo-1-phenylpropyl} benzamide (21d)] and `COc1ccc(C(=O)NC(CC(=O)N[C@@H](CC(C)C)C(=O)N[C@@H](CC(C)C)C(=O)[C@@]2(C)CO2)c2ccccc2)cc1` (some centres undefined) [4-Methoxy-N-{3-{S-4-methyl-1-[S-4-methyl-1-(R-2-methyloxiran-2-yl)-1-oxopentan-2-ylamino]-1-oxopentan-2-ylamino}-3-oxo-1-phenylpropyl} benzamide (21e)] are within 1.5-fold of each other in IC50: 970 nM for the first, 1010 nM for the second.

`CC(C)C[C@H](NC(=O)CC(NC(=O)c1ccccc1)c1ccccc1)C(=O)N[C@@H](CC(C)C)C(=O)[C@@]1(C)CO1` (some centres undefined) [N-{3-{S-4-Methyl-1-[S-4-methyl-1-(R-2-methyloxiran-2-yl)-1-oxopentan-2-ylamino]-1-oxopentan-2-ylamino}-3-oxo-1-phenylpropyl} benzamide (21c)] and `CC(C)C[C@H](NC(=O)CC(NC(=O)c1cccnc1)c1ccccc1)C(=O)N[C@@H](CC(C)C)C(=O)[C@@]1(C)CO1` (some centres undefined) [N-{3-{S-4-Methyl-1-[S-4-methyl-1-(R-2-methyloxiran-2-yl)-1-oxopentan-2-ylamino]-1-oxopentan-2-ylamino}-3-oxo-1-phenylpropyl} nicotinamide (21b)] are within 1.5-fold of each other in IC50: 1420 nM for the first, 1850 nM for the second.
